Our source for the IC50 values is patent publication US8541380B2, “C-aryl glucoside SGLT2 inhibitors and pharmaceutical compositions comprising same” (Green Cross Corporation, priority 2009, dated 2013).

Broadly, the IC50 is the concentration that gives 50% inhibition.

This assay deals with human SGLT2 (Homo sapiens (Human), UniProt P31639). Nature of the assay: hSGLT2 inhibitory activity, sodium-dependent 14C-AMG glucose transport assay in CHO cells expressing hSGLT2. In kind it is cell-based. The note with it: 14C-AMG uptake, CHO cells expressing hSGLT2, 37° C. for 2 h. From the text: Human SGLT2 (hSGLT2) gene was amplified by PCR from cDNA-Human Adult Normal Tissue Kidney (Invitrogen, Carlsbad, Calif.). The hSGLT2 sequence was cloned into pcDNA3.1(+) for mammalian expression and were stably transfected into Chinese hamster ovary (CHO) cells. SGLT2-expressing clones were selected based on resistance to G418 antibiotic (Geneticin®, Invitrogen, Carlsbad, Calif.) and activity in the ^14C-α-methyl-D-glucopyranoside (^14C-AMG) uptake assay.
Sequence of human SGLT2 (P31639 whole entry): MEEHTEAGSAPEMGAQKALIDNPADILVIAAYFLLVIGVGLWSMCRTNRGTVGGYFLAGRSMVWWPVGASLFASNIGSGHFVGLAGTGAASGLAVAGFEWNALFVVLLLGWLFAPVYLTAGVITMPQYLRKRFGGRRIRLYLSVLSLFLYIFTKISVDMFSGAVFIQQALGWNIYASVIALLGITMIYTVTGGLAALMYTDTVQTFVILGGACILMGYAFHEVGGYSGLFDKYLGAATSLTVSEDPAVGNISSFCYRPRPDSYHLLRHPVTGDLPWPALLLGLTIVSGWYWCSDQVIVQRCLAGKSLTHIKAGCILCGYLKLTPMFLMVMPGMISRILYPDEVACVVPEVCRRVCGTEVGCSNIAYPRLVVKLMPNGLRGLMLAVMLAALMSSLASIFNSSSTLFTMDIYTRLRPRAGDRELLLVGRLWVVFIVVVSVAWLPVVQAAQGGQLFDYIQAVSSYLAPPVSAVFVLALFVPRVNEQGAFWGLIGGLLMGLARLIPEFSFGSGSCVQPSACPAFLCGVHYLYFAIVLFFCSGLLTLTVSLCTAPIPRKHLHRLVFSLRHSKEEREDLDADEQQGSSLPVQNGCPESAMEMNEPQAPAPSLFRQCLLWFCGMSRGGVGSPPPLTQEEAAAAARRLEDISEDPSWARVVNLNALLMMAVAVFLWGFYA
For sodium-dependent glucose transport assay, cells expressing hSGLT2 were seeded into a 96-well culture plate at a density of 5×10^4 cells/well in RPMI medium 1640 containing 10% fetal bovine serum. The cells were used 1 day after plating. They were incubated in pretreatment buffer (10 mM HEPES, 5 mM Tris, 140 mM choline chloride, 2 mM KCl, 1 mM CaCl2, and 1 mM MgCl2, pH 7.4) at 37° C. for 10 min. They were then incubated in uptake buffer (10 mM HEPES, 5 mM Tris, 140 mM NaCl, 2 mM KCl, 1 mM CaCl2, 1 mM MgCl2, and 1 mM ^14C-nonlabeled AMG pH 7.4) containing ^14C-labeled (8 uM) and inhibitor or dimethyl sulfoxide (DMSO) vehicle at 37° C. for 2 h. Cells were washed twice with washing buffer (pretreatment buffer containing 10 mM AMG at room temperature) and then the radioactivity was measured using a liquid scintillation counter.
Turning to `OC[C@H]1O[C@@H](c2ccc(Cl)c(Cc3nnc(-c4ccc5ccccc5n4)s3)c2)[C@H](O)[C@@H](O)[C@@H]1O` [Example 17, (2S,3R,4R,5S,6R)-2-(4-Chloro-3-((5-(quinolin-2-yl)-1,3,4-thiadiazol-2-yl)methyl)phenyl)-6-(hydroxymethyl)-tetrahydro-2H-pyran-3,4,5-triol], 562 nM corresponded to half-maximal inhibition (IC50).
The value for `COc1c(Cc2nnc(-c3ccco3)s2)cc([C@@H]2O[C@H](CO)[C@@H](O)[C@H](O)[C@H]2O)c2ccccc12` [Example 93, (2S,3R,4R,5S,6R)-2-(3-((5-(Furan-2-yl)-1,3,4-thiadiazol-2-yl)methyl)-4-methoxynaphthalen-1-yl)-6-(hydroxymethyl)-tetrahydro-2H-pyran-3,4,5-triol] was 10.7 nM; that for `OC[C@H]1O[C@@H](c2ccc(Cl)c(Cc3nnc(-c4cc5ccccc5s4)s3)c2)[C@H](O)[C@@H](O)[C@@H]1O` [Example 6, (2S,3R,4R,5S,6R)-2-(3-((5-(Benzo[b]thiophen-2-yl)-1,3,4-thiadiazol-2-yl)methyl)-4-chlorophenyl)-6-(hydroxymethyl)-tetrahydro-2H-pyran-3,4,5-triol] was 44.5 nM.
Under `OC[C@H]1O[C@@H](c2ccc(Cl)c(Cc3nnc(-c4sccc4Cl)s3)c2)[C@H](O)[C@@H](O)[C@@H]1O` [Example 9, (2S,3R,4R,5S,6R)-2-(4-Chloro-3-((5-(3-chlorothiophen-2-yl)-1,3,4-thiadiazol-2-yl)methyl)phenyl)-6-(hydroxymethyl)tetrahydro-2H-pyran-3,4,5-triol] stands 712 nM; under `CCCCCCCc1nnc(Cc2cc([C@@H]3O[C@H](CO)[C@@H](O)[C@H](O)[C@H]3O)ccc2Cl)s1` [Example 34, (2S,3R,4R,5S,6R)-2-(4-Chloro-3-((5-heptyl-1,3,4-thiadiazol-2-yl)methyl)phenyl)-6-(hydroxymethyl)-tetrahydro-2H-pyran-3,4,5-triol], 122 nM.
The value for `CCCCCCCCOc1ccc(Cc2cc([C@@H]3O[C@H](CO)[C@@H](O)[C@H](O)[C@H]3O)ccc2Cl)nn1` [Example 56, (2S,3R,4R,5S,6R)-2-(4-Chloro-3-((6-(octyloxy)pyridazin-3-yl)methyl)phenyl)-6-(hydroxymethyl)-tetrahydro-2H-pyran-3,4,5-triol] was 50.5 nM; that for `CCCCc1nnc(Cc2cc([C@@H]3O[C@H](CO)[C@@H](O)[C@H](O)[C@H]3O)ccc2Cl)s1` [Example 32, (2S,3R,4R,5S,6R)-2-(3-((5-Butyl-1,3,4-thiadiazol-2-yl)methyl)-4-chlorophenyl)-6-(hydroxymethyl)-tetrahydro-2H-pyran-3,4,5-triol] was 379 nM.
Consider `Cc1ccsc1-c1nnc(Cc2cc([C@@H]3O[C@H](CO)[C@@H](O)[C@H](O)[C@H]3O)ccc2Cl)s1` [Example 7, (2S,3R,4R,5S,6R)-2-(4-chloro-3-((5-(3-methylthiophen-2-yl)-1,3,4-thiadiazol-2-yl)methyl)phenyl)-6-(hydroxymethyl)-tetrahydro-2H-pyran-3,4,5-triol], for which the IC50 worked out at 762 nM.
Under `OC[C@H]1O[C@@H](c2cc(Cc3nnc(-c4ccco4)s3)cc3ccccc23)[C@H](O)[C@@H](O)[C@@H]1O` [Example 92, (2S,3R,4R,5S,6R)-2-(3-((5-(Furan-2-yl)-1,3,4-thiadiazol-2-yl)methyl)naphthalene-1-yl)-6-(hydroxymethyl)-tetrahydro-2H-pyran-3,4,5-triol] stands 88.9 nM.
Under `OC[C@H]1O[C@@H](c2ccc(Cl)c(Cc3nnc(-c4cnc(-c5ccncc5)s4)s3)c2)[C@H](O)[C@@H](O)[C@@H]1O` [Example 14, (2S,3R,4R,5S,6R)-2-(4-Chloro-3-((5-(2-(pyridin-4-yl)thiazol-5-yl)-1,3,4-thiadiazol-2-yl)methyl)phenyl)-6-(hydroxymethyl)-tetrahydro-2H-pyran-3,4,5-triol] stands 72.6 nM.
The compound `COc1cnc(Cc2cc([C@@H]3O[C@H](CO)[C@@H](O)[C@H](O)[C@H]3O)ccc2Cl)nn1` [Example 91, (2S,3R,4R,5S,6R)-2-(4-Chloro-3-((6-methoxy-1,2,4-triazin-3-yl)methyl)phenyl)-6-(hydroxymethyl)tetrahydro-2H-pyran-3,4,5-triol] came in with an IC50 of 24.9 nM.
With `OC[C@H]1O[C@@H](c2ccc(Cl)c(Cc3nnc(-c4ccsc4)s3)c2)[C@H](O)[C@@H](O)[C@@H]1O` [Example 10, (2S,3R,4R,5S,6R)-2-(4-Chloro-3-((5-(thiophen-3-yl)-1,3,4-thiadiazol-2-yl)methyl)phenyl)-6-(hydroxymethyl)tetrahydro-2H-pyran-3,4,5-triol], the midpoint of inhibition, the IC50, lay at 3.51 nM.
Under `OC[C@H]1OC(c2ccc(Cl)c(Cc3nnc(-c4cccnc4)s3)c2)[C@H](O)[C@@H](O)[C@@H]1O` (stereo partly drawn) [Example 21, (3R,4R,5S,6R)-2-(4-Chloro-3-((5-(pyridin-3-yl)-1,3,4-thiadiazol-2-yl)methyl)phenyl)-6-(hydroxymethyl)-tetrahydro-2H-pyran-3,4,5-triol] stands 45.3 nM; under `OC[C@H]1O[C@@H](c2ccc(Cl)c(Cc3ccc(OC4CCCCC4)nn3)c2)[C@H](O)[C@@H](O)[C@@H]1O` [Example 59, (2S,3R,4R,5S,6R)-2-(4-Chloro-3-((6-(cyclohexyloxy)pyridazin-3-yl)methyl)phenyl)-6-(hydroxymethyl)-tetrahydro-2H-pyran-3,4,5-triol], 111 nM.
The value for `CCCc1nnc(Cc2cc([C@@H]3O[C@H](CO)[C@@H](O)[C@H](O)[C@H]3O)ccc2Cl)s1` [Example 31, (2S,3R,4R,5S,6R)-2-(4-Chloro-3-((5-propyl-1,3,4-thiadiazol-2-yl)methyl)phenyl)-6-(hydroxymethyl)-tetrahydro-2H-pyran-3,4,5-triol] was 214 nM; that for `OC[C@H]1O[C@@H](c2cc(Cc3nnc(-c4ccco4)s3)c(Cl)cc2Cl)[C@H](O)[C@@H](O)[C@@H]1O` [Example 96, (2S,3R,4R,5S,6R)-2-(2,4-Dichloro-5-((5-(furan-2-yl)-1,3,4-thiadiazol-2-yl)methyl)phenyl)-6-(hydroxymethyl)-tetrahydro-2H-pyran-3,4,5-triol] was 17.6 nM.
`OC[C@H]1O[C@@H](c2ccc(Cl)c(Cc3nnc(-c4cnccn4)s3)c2)[C@H](O)[C@@H](O)[C@@H]1O` [Example 42, (2S,3R,4R,5S,6R)-2-(4-Chloro-3-((5-(pyrazin-2-yl)-1,3,4-thiadiazol-2-yl)methyl)phenyl)-6-(hydroxymethyl)-tetrahydro-2H-pyran-3,4,5-triol]: half-maximal inhibition (IC50) was put at 4.06 nM.
`OC[C@H]1O[C@@H](c2cc(Cc3nnc(-c4ccco4)s3)c(O)c3ccccc23)[C@H](O)[C@@H](O)[C@@H]1O` [Example 94, (2S,3R,4R,5S,6R)-2-(3-((5-(Furan-2-yl)-1,3,4-thiadiazol-2-yl)methyl)-4-hydroxynaphthalen-1-yl)-6-(hydroxymethyl)-tetrahydro-2H-pyran-3,4,5-triol] came in with an IC50 of 24.8 nM.
Turning to `COC(=O)c1ccc(Cc2cc([C@@H]3O[C@H](CO)[C@@H](O)[C@H](O)[C@H]3O)ccc2Cl)nn1` [Example 49, Methyl 6-(2-chloro-5-((2S,3R,4R,5S,6R)-3,4,5-trihydroxy-6-(hydroxymethyl)-tetrahydro-2H-pyran-2-yl)benzyl)pyridazine-3-carboxylate], inhibition was half-maximal at 201 nM (IC50).
The value for `Cc1ccc(-c2nnc(Cc3cc([C@@H]4O[C@H](CO)[C@@H](O)[C@H](O)[C@H]4O)ccc3Cl)s2)o1` [Example 2, (2S,3R,4R,5S,6R)-2-(4-Chloro-3-((5-(5-methylfuran-2-yl)-1,3,4-thiadiazol-2-yl)methyl)phenyl)-6-(hydroxymethyl)-tetrahydro-2H-pyran-3,4,5-triol] was 58.3 nM; that for `CSc1nnc(Cc2cc([C@@H]3O[C@H](CO)[C@@H](O)[C@H](O)[C@H]3O)ccc2Cl)cc1C` [Example 82, (2S,3R,4R,5S,6R)-2-(4-Chloro-3-((5-methyl-6-(methylthio)pyridazin-3-yl)methyl)phenyl)-6-(hydroxymethyl)tetrahydro-2H-pyran-3,4,5-triol] was 1520 nM; that for `OC[C@H]1O[C@@H](c2ccc(Cl)c(Cc3nnc(-c4ccc(Cl)cc4)s3)c2)[C@H](O)[C@@H](O)[C@@H]1O` [Example 29, (2S,3R,4R,5S,6R)-2-(4-chloro-3-((5-(4-Chlorophenyl)-1,3,4-thiadiazol-2-yl)methyl)phenyl)-6-(hydroxymethyl)-tetrahydro-2H-pyran-3,4,5-triol] was 126 nM.
Under `OC[C@H]1O[C@@H](c2ccc(Cl)c(Cc3nnc(-c4cccs4)s3)c2)[C@H](O)[C@@H](O)[C@@H]1O` [Example 5, (2S,3R,4R,5S,6R)-2-(4-Chloro-3-((5-(thiophen-2-yl)-1,3,4-thiadiazol-2-yl)methyl)phenyl)-6-(hydroxymethyl)tetrahydro-2H-pyran-3,4,5-triol] stands 14.4 nM.
Compound `OC[C@H]1OC(c2ccc(Cl)c(Cc3nnc(-c4ccncc4)s3)c2)[C@H](O)[C@@H](O)[C@@H]1O` (stereo partly drawn) [Example 20, (3R,4R,5S,6R)-2-(4-Chloro-3-((5-(pyridin-4-yl)-1,3,4-thiadiazol-2-yl)methyl)phenyl)-6-(hydroxymethyl)-tetrahydro-2H-pyran-3,4,5-triol] yielded an IC50 of 53 nM.
